Measurements: US20150119410A1, “BIOMARKERS OF RESPONSE TO NAE INHIBITORS” (MILLENNIUM PHARMACEUTICALS, INC., priority 2011, published 2015)

Legend:
Assay in all cases: Cell line panel 1 viability screen
Type in all cases: cell-based
AN3CA = AN3CA (Uterus)
Method: (§1) To support clinical development and identify potential biomarkers of tumor sensitivity or resistance, two large cancer cell line panels (Panel 1, N=653 (McDermott et al. (2007) PNAS 104:19936-19941); Panel 2, N=240 (O'Day et al. (2010) Fourth AACR International Conference on Molecular Diagnostics in Cancer Therapeutic Development)) were treated with MLN4924 and cell viability data (IC50, EC50, and POC—Percentage of Control) were generated.
(§2) Panel 1 (McDermott et al., supra). The cell lines were exposed to three MLN4924 concentrations (20 nM, 200 nM, and 2 μM) for 72 hours. Viability, i.e., cell number, was quantified by measuring fluorescence of a cell-permeant nucleic acid stain. Mean of triplicate values for each sample were taken and compared to DMSO control to calculate percentage of control. In the results, control or no activity value is given a value of about 1, sensitivity is indicated by a value less than 1, with 0 as death of the entire cell population and resistance indicated by a value greater than 1. A continuum of viability values was obtained for each concentration, so some values were selected as cut-offs for final determination of sensitivity or resistance. For example, median POC values of less than the median value of all POC's recorded in the panel (<0.34) indicated sensitivity, values of 0.34 to 0.75 indicated borderline sensitivity, values greater than the 3rd quartile of all POC's in the panel (>0.75) insensitivity or resistance. […] Final judgment of cell line as sensitive, insensitive or resistant was determined by its viability at 2 μM.

C-33a = C-33a (Cervix)
Method: as §1, §2

CAPAN-1 = CAPAN-1 (pancreas)
Method: as §1, §2

COLO-678 = COLO-678 (large_intestine)
Method: as §1, §2

GAMG = GAMG (central nervous system)
Method: as §1, §2

HGC-27 = details: Homo sapiens; HGC-27 (stomach); 2 μM MLN4924, 72 hours; DMSO control about 1
Method: as §1, §2

HT55 = details: Homo sapiens; HT55 (intestine); 2 μM MLN4924, 72 hours; DMSO control about 1
Method: as §1, §2

KP-4 = KP-4 (pancreas)
Method: as §1, §2

KU-19-19 = KU-19-19 (urinary_tract)
Method: as §1, §2

KYSE-180 = KYSE-180 (oesophagus)
Method: as §1, §2

LK-2 = details: Homo sapiens; LK-2 (lung); 2 μM MLN4924, 72 hours; DMSO control about 1
Method: as §1, §2

MDA-MB-231 = MDA-MB-231 (breast)
Method: as §1, §2

MIA-PaCa-2 = MIA-PaCa-2 (pancreas)
Method: as §1, §2

NCI-H2405 = NCI-H2405 (lung)
Method: as §1, §2

NCI-N87 = NCI-N87 (stomach)
Method: as §1, §2

S-117 = S-117 (soft_tissue)
Method: as §1, §2

SK-MEL-30 = details: Homo sapiens; SK-MEL-30 (skin); 2 μM MLN4924, 72 hours; DMSO control about 1
Method: as §1, §2

SK-OV-3 = details: Homo sapiens; SK-OV-3 (ovary); 2 μM MLN4924, 72 hours; DMSO control about 1
Method: as §1, §2

SN12C = SN12C (kidney)
Method: as §1, §2

SW 1116 = details: Homo sapiens; SW 1116 (intestine); 2 μM MLN4924, 72 hours; DMSO control about 1
Method: as §1, §2

SW1417 = details: Homo sapiens; SW1417 (intestine); 2 μM MLN4924, 72 hours; DMSO control about 1
Method: as §1, §2

SW837 = details: Homo sapiens; SW837 (intestine); 2 μM MLN4924, 72 hours; DMSO control about 1
Method: as §1, §2

T84 = details: Homo sapiens; T84 (intestine); 2 μM MLN4924, 72 hours; DMSO control about 1
Method: as §1, §2

[1] = Homo sapiens, 2 μM MLN4924, 72 hours, DMSO control about 1

NS(=O)(=O)OC[C@@H]1C[C@@H](n2ccc3c(N[C@H]4CCc5ccccc54)ncnc32)C[C@@H]1O [MLN4924, ((1S,2S,4R)-4-{4-[(1S)-2,3-dihydro-1H-inden-1-ylamino]-7H-pyrrolo[2,3-d]pyrimidin-7-yl}-2-hydroxycyclopentyl)methyl sulphamate]
Phenotype (AN3CA; FBXW7 mutant): sensitive (median POC values of less than the median value of all POC's recorded in the panel (<0.34) indicated sensitivity)
viability at 2 µM (AN3CA; Homo sapiens, AN3-CA, 2 μM MLN4924, 72 hours, DMSO control about 1): 19.4%
Phenotype (C-33a; FBXW7 mutant): sensitive (median POC values of less than the median value of all POC's recorded in the panel (<0.34) indicated sensitivity)
viability at 2 µM (C-33a; [1]): 8.22%
Phenotype (CAPAN-1; SMAD4 mutant): sensitive?
viability at 2 µM (CAPAN-1; [1]): 14.7%
Phenotype (COLO-678; SMAD4 mutant): resistant (values greater than the 3rd quartile of all POC's in the panel (>0.75) insensitivity or resistance)
viability at 2 µM (COLO-678; [1]): 81.4%
Phenotype (GAMG; SMAD4 mutant): sensitive (median POC values of less than the median value of all POC's recorded in the panel (<0.34) indicated sensitivity)
viability at 2 µM (GAMG; [1]): 7.21%
viability at 2 µM (HGC-27): 12.9%
viability at 2 µM (HT55): 51.4%
viability at 2 µM (KP-4; [1]): 5.18%
Phenotype (KP-4; SMAD4 mutant): sensitive (median POC values of less than the median value of all POC's recorded in the panel (<0.34) indicated sensitivity)
viability at 2 µM (KU-19-19; [1]): 5.8%
Phenotype (KU-19-19; KDM6A mutant): sensitive (median POC values of less than the median value of all POC's recorded in the panel (<0.34) indicated sensitivity)
viability at 2 µM (KYSE-180; [1]): 21.5%
Phenotype (KYSE-180; KDM6A mutant): sensitive (median POC values of less than the median value of all POC's recorded in the panel (<0.34) indicated sensitivity)
viability at 2 µM (LK-2): 28.9%
viability at 2 µM (MDA-MB-231; [1]): 52.8%
Phenotype (MDA-MB-231; NF2 mutant): insensitive (values of 0.34 to 0.75 indicated borderline sensitivity)
viability at 2 µM (MIA-PaCa-2; [1]): 11.5%
Phenotype (MIA-PaCa-2; KDM6A mutant): sensitive (median POC values of less than the median value of all POC's recorded in the panel (<0.34) indicated sensitivity)
viability at 2 µM (NCI-H2405; [1]): 25.5%
Phenotype (NCI-H2405; SMAD4 mutant): sensitive (median POC values of less than the median value of all POC's recorded in the panel (<0.34) indicated sensitivity)
viability at 2 µM (NCI-N87; [1]): 14.6%
Phenotype (NCI-N87; SMAD4 mutant): sensitive (median POC values of less than the median value of all POC's recorded in the panel (<0.34) indicated sensitivity)
viability at 2 µM (S-117; [1]): 64.1%
Phenotype (S-117; NF2 mutant): resistant (values greater than the 3rd quartile of all POC's in the panel (>0.75) insensitivity or resistance)
viability at 2 µM (SK-MEL-30): 77.3%
viability at 2 µM (SK-OV-3): 39.7%
viability at 2 µM (SN12C; [1]): 33.6%
Phenotype (SN12C; NF2 mutant): sensitive (median POC values of less than the median value of all POC's recorded in the panel (<0.34) indicated sensitivity)
viability at 2 µM (SW 1116): 116%
viability at 2 µM (SW1417): 63.7%
viability at 2 µM (SW837): 70.2%
viability at 2 µM (T84): 57.8%
